Results on 17 compounds are retold here after patent publication US9676782B2, “Substituted pyrazolo[1,5-a]pyrazines as negative allosteric modulators of metabotropic glutamate receptor 3” (Vanderbilt University, priority 2014, dated 2017).

Molecules are shown by their SMILES. Like-named read-outs stand apart in the source and are kept apart here.

The term EC50 denotes the concentration that produces a half-maximal response. Broadly, the IC50 is the point on the concentration scale where inhibition reaches its midpoint.

One assay deals with rat mGlu5 (Rattus norvegicus (Rat), UniProt P31424). Put plainly: mGlu5 Ca2+ flux assay. Format: cell-based. Particulars: for Fold selectivity (mGlu3 vs. mGlu5): ratio of rat mGlu5 EC50 or IC50 to rat mGlu3 IC50; for Emax at 30 µM: read-out: rat mGlu5 Glu max (%). As to the method:
(§1) The cells were grown overnight at 37° C. in the presence of 5% CO2. […] Dye was removed, 20 μL of assay buffer was added, and the plate was incubated for 5 minutes at room temperature. Ca^2+ flux was measured using the Functional Drug Screening System (FDSS7000, Hamamatsu, Japan). […] All test compounds were dissolved and diluted to a concentration of 10 mM in 100% DMSO. […] Calcium fluorescence measures were recorded as fold over basal fluorescence; raw data was then normalized to the maximal response to glutamate. […] The raw data file containing all time points was used as the data source in the analysis template. This was saved by the FDSS as a tab-delimited text file. Data were normalized using a static ratio function (F/F0) for each measurement of the total 360 values per well divided by each well's initial value. […] This is sufficient time to capture the peak amplitude of the cellular calcium response. […] EC50 values for test compounds were generated by fitting the normalized values versus the log of the test compound concentration (in mol/L) using a 4 parameter logistic equation where none of the parameters were fixed. Each of the three values collected at each concentration of test compound were weighted evenly.
(A change in cytosolic calcium serves as a functional read-out for many receptors and channels.)

In the next assay the target is rat mGlu3 (Rattus norvegicus (Rat), UniProt P31422). Description: mGlu3 Ca2+ flux assay. The following applies: for IC50: NAM potency, decrease of glutamate EC80 response, >30,000 = no measurable activity, >10,000 = no plateau, read-out: rat mGlu3 IC50; for remaining activity at 30 µM: amplitude of response at 30 μM test compound as % of maximal response to glutamate, read-out: rat mGlu3 Glu max (%). Format: cell-based. Here is the method: as §1, with “for 10” for “for 5”
Chain of rat mGlu3 (P31422 23-879): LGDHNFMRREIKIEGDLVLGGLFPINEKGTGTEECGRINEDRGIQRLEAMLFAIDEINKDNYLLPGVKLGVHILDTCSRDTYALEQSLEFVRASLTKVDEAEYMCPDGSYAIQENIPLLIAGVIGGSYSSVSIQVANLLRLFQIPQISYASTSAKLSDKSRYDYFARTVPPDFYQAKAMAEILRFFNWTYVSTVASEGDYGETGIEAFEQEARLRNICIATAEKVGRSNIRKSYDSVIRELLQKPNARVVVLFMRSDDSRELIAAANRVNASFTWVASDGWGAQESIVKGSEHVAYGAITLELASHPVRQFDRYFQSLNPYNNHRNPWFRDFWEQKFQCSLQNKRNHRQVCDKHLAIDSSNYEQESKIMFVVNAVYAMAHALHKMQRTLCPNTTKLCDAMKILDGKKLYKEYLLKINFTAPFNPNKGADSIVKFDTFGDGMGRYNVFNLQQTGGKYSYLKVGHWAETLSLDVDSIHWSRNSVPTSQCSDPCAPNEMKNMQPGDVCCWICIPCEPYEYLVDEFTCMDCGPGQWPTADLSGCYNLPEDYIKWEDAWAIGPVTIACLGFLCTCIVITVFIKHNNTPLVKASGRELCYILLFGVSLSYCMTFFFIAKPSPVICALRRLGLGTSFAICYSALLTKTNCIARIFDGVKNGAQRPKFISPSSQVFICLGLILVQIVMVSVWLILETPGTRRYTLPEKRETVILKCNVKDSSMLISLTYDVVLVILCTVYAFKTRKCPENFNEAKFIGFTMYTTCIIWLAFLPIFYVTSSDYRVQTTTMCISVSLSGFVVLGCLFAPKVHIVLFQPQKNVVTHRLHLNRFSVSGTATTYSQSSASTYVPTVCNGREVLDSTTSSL

Where [1] appears, read: read-out: rat mGlu5 EC50 or IC50.
Where [2] appears, read: PAM, amplitude of response at 30 μM test compound as % of maximal response to glutamate.

Chain of rat mGlu5 (P31424 21-1203): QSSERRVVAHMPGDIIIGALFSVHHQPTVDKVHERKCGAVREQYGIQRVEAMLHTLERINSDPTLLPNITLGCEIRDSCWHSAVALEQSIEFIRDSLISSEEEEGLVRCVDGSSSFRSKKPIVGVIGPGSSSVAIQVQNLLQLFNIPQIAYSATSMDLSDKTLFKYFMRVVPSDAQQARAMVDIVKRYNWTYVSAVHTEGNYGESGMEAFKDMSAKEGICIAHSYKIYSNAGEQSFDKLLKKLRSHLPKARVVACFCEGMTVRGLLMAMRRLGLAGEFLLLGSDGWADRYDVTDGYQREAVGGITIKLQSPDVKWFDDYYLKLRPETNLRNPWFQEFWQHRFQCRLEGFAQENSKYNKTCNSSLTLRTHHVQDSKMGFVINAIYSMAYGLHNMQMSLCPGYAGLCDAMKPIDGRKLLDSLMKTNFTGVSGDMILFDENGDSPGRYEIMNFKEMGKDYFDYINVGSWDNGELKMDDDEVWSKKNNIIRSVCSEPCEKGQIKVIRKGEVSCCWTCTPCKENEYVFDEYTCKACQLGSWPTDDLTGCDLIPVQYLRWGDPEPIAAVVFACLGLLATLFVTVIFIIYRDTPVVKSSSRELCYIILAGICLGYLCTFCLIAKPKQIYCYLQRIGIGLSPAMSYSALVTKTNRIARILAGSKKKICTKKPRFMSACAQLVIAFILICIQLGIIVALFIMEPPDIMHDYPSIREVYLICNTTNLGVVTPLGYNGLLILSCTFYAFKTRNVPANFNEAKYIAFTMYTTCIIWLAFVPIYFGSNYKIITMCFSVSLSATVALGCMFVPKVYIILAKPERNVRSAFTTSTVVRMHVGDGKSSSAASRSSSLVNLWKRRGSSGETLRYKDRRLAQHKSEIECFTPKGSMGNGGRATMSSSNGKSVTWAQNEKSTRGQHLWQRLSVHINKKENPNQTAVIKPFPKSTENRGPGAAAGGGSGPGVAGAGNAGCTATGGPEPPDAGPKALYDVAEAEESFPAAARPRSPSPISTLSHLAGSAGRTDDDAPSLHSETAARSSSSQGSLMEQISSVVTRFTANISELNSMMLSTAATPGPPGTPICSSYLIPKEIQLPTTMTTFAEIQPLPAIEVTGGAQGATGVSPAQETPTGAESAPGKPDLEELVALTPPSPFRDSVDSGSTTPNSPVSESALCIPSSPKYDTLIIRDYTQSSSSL

Take `O=C1c2cc(CNc3ccc(OC(F)F)cc3F)nn2CCN1c1ccc(Cl)cn1` [Compound 148, 5-(5-chloropyridin-2-yl)-2-(((4-(difluoromethoxy)-2-fluorophenyl)amino)methyl)-6,7-dihydropyrazolo[1,5-a]pyrazin-4(5H)-one]: the “Fold selectivity (mGlu3 vs. mGlu5)” value on rat mGlu5 is on record as above 32. At rat mGlu5 (setting [1]), the EC50 was above 30 µM. Besides, at rat mGlu3, the IC50 was 0.93 µM and the remaining activity at 30 µM is 3.97%.
Turning to `C[C@H]1CN(c2ccc(F)cc2)C(=O)c2cc(CNc3c(F)cc(F)cc3F)nn21` [Compound 80, (S)-5-(4-fluorophenyl)-7-methyl-2-(((2,4,6-trifluorophenyl)amino)methyl)-6,7-dihydropyrazolo[1,5-a]pyrazin-4(5H)-one], the Emax at 30 µM at rat mGlu5 (setting [2]) turned out to be 95.8%. Moreover, the “Fold selectivity (mGlu3 vs. mGlu5)” value at rat mGlu5 worked out at 1.79. In addition, the EC50 at rat mGlu5 (setting [1]) stood at 7.75 µM. In addition, at rat mGlu3, the IC50 turned out to be 4.32 µM and the remaining activity at 30 µM is -0.58%.
As to `C[C@@H]1CN(c2ccc(F)cc2)C(=O)c2cc(CNc3c(F)cc(F)cc3F)nn21` [Compound 79, (R)-5-(4-fluorophenyl)-7-methyl-2-(((2,4,6-trifluorophenyl)amino)methyl)-6,7-dihydropyrazolo[1,5-a]pyrazin-4(5H)-one], the Emax at 30 µM on rat mGlu5 (setting [2]) is 40%. Moreover, the “Fold selectivity (mGlu3 vs. mGlu5)” value on rat mGlu5 is above 7.8. On rat mGlu5 (setting [1]), the concentration for a half-maximal effect (EC50) is above 10 µM. Moreover, on rat mGlu3, the IC50 turned out to be 1.28 µM and the remaining activity at 30 µM turned out to be 1.49%.
As for `Cc1nc(N2CCn3nc(CNc4ccc(OC(F)F)cc4F)cc3C2=O)cs1` [Compound 140, 2-(((4-(difluoromethoxy)-2-fluorophenyl)amino)methyl)-5-(2-methylthiazol-4-yl)-6,7-dihydropyrazolo[1,5-a]pyrazin-4(5H)-one], the “Fold selectivity (mGlu3 vs. mGlu5)” value on rat mGlu5 is above 48. Also, the EC50 at rat mGlu5 (setting [1]) is above 30 µM. In addition, at rat mGlu3, the IC50 came out at 0.624 µM and the remaining activity at 30 µM turned out to be 2.43%.
Turning to `COc1ccc(N(C)Cc2cc3n(n2)CCN(c2cc(F)ccc2Cl)C3=O)cc1` [Compound 129, 5-(2-chloro-5-fluorophenyl)-2-(((4-methoxyphenyl)(methyl)amino)methyl)-6,7-dihydropyrazolo[1,5-a]pyrazin-4(5H)-one], the “Fold selectivity (mGlu3 vs. mGlu5)” value at rat mGlu5 is on record as above 14. Also, the EC50 on rat mGlu5 (setting [1]) is above 30 µM. Also, on rat mGlu3, the half-inhibitory concentration (IC50) stood at 2.02 µM and the remaining activity at 30 µM worked out at 2.02%.
On to `C[C@H]1CN(c2ccc(F)cc2)C(=O)c2cc(CNc3cc(F)ccc3F)nn21` [Compound 71, (S)-2-(((2,5-difluorophenyl)amino)methyl)-5-(4-fluorophenyl)-7-methyl-6,7-dihydropyrazolo[1,5-a]pyrazin-4(5H)-one], for which, at rat mGlu5 (setting [2]), the Emax at 30 µM was 76.6%. Moreover, at rat mGlu5, the “Fold selectivity (mGlu3 vs. mGlu5)” value was 7.33. Moreover, the EC50 on rat mGlu5 (setting [1]) came to 9.6 µM. On rat mGlu3, the half-inhibitory concentration (IC50) is 1.31 µM and the remaining activity at 30 µM was found to be 1.6%.
`O=C1c2cc(CNc3ccc(OC(F)F)cc3F)nn2CCN1c1cccc(Cl)c1` [Compound 150, 5-(3-chlorophenyl)-2-(((4-(difluoromethoxy)-2-fluorophenyl)amino)methyl)-6,7-dihydropyrazolo[1,5-a]pyrazin-4(5H)-one]: on rat mGlu5, the “Fold selectivity (mGlu3 vs. mGlu5)” value is given as above 21. Besides, at rat mGlu5 (setting [1]), the half-maximal effective concentration (EC50) was above 30 µM. Moreover, on rat mGlu3, the IC50 was 1.39 µM and the remaining activity at 30 µM came to 2.97%.
On to `CN(Cc1cc2n(n1)CCN(c1ccc(F)cc1)C2=O)c1ccccc1Cl` [Compound 84, 2-(((2-chlorophenyl)(methyl)amino)methyl)-5-(4-fluorophenyl)-6,7-dihydropyrazolo[1,5-a]pyrazin-4(5H)-one], for which the concentration for half-maximal inhibition (IC50) at rat mGlu5 (compound noted as NAM or partial antagonist (PAnt) at mGlu5, glutamate EC80, read-out: rat mGlu5 EC50 or IC50) was above 10 µM. On rat mGlu5 (compound noted as NAM or partial antagonist (PAnt) at mGlu5, response at 30 μM as % of maximal glutamate response), the Emax at 30 µM was determined as 73.4%. Also, the “Fold selectivity (mGlu3 vs. mGlu5)” value on rat mGlu5 is above 5.3. Further, at rat mGlu3, the concentration for half-maximal inhibition (IC50) amounted to 1.86 µM and the remaining activity at 30 µM turned out to be 0.82%.
As to `Cc1ccc(NCc2cc3n(n2)CCN(c2ccc(F)cc2)C3=O)nc1` [Compound 159, 5-(4-fluorophenyl)-2-(((5-methylpyridin-2-yl)amino)methyl)-6,7-dihydropyrazolo[1,5-a]pyrazin-4(5H)-one], the “Fold selectivity (mGlu3 vs. mGlu5)” value at rat mGlu5 was above 16. For the same compound, the EC50 on rat mGlu5 (setting [1]) is above 30 µM. Further, on rat mGlu3, the IC50 was 1.77 µM and the remaining activity at 30 µM is 0.86%.
For `COc1ccc(N(C)Cc2cc3n(n2)CCN(c2ccc(C#N)cc2)C3=O)cc1` [Compound 118, 4-(2-(((4-methoxyphenyl)(methyl)amino)methyl)-4-oxo-6,7-dihydropyrazolo[1,5-a]pyrazin-5(4H)-yl)benzonitrile] the same measures were above 15, above 30 µM, 1.97 µM and 1.63%.
For `COc1ccc(N(C)Cc2cc3n(n2)CCN(c2cc(F)cc(F)c2)C3=O)cc1` [Compound 104, 5-(3,5-difluorophenyl)-2-(((4-methoxyphenyl)(methyl)amino)methyl)-6,7-dihydropyrazolo[1,5-a]pyrazin-4(5H)-one] the same measures were above 35, above 30 µM, 0.856 µM and 1.3%.
Regarding `COc1ccc(N(C)Cc2cc3n(n2)CCN(c2cccc(Cl)c2)C3=O)cc1` [Compound 98, 5-(3-chlorophenyl)-2-(((4-methoxyphenyl)(methyl)amino)methyl)-6,7-dihydropyrazolo[1,5-a]pyrazin-4(5H)-one], the “Fold selectivity (mGlu3 vs. mGlu5)” value on rat mGlu5 is recorded as above 44. Moreover, on rat mGlu5 (setting [1]), the concentration for a half-maximal effect (EC50) is above 30 µM. On rat mGlu3, the IC50 came out at 0.668 µM and the remaining activity at 30 µM was determined as 1.53%.
Regarding `COc1ccc(NCc2cc3n(n2)[C@H](C)CN(c2ccc(F)cc2)C3=O)cc1` [Compound 62, (R)-5-(4-fluorophenyl)-2-(((4-methoxyphenyl)amino)methyl)-7-methyl-6,7-dihydropyrazolo[1,5-a]pyrazin-4(5H)-one], on rat mGlu5, the “Fold selectivity (mGlu3 vs. mGlu5)” value was above 10. Further, on rat mGlu5 (setting [1]), the EC50 was above 30 µM. Also, at rat mGlu3, the concentration for half-maximal inhibition (IC50) was determined as 2.99 µM and the remaining activity at 30 µM amounted to 0.79%.
Regarding `C[C@H]1CN(c2ccc(F)cc2)C(=O)c2cc(CNc3cccc(F)c3F)nn21` [Compound 69, (S)-2-(((2,3-difluorophenyl)amino)methyl)-5-(4-fluorophenyl)-7-methyl-6,7-dihydropyrazolo[1,5-a]pyrazin-4(5H)-one], the Emax at 30 µM at rat mGlu5 (setting [2]) was 89.1%. For the same compound, the “Fold selectivity (mGlu3 vs. mGlu5)” value at rat mGlu5 amounted to 2.59. The EC50 at rat mGlu5 (setting [1]) is 5.75 µM. At rat mGlu3, the IC50 was 2.22 µM and the remaining activity at 30 µM was 2.19%.
In the case of `O=C1c2cc(CNc3ccccc3F)nn2CCN1c1ccc(F)cc1` [Compound 3, 5-(4-fluorophenyl)-2-(((2-fluorophenyl)amino)methyl)-6,7-dihydropyrazolo[1,5-a]pyrazin-4(5H)-one], the Emax at 30 µM at rat mGlu5 (setting [2]) came out at 95.7%. The “Fold selectivity (mGlu3 vs. mGlu5)” value at rat mGlu5 is on record as 2.62. Besides, the half-maximal effective concentration (EC50) on rat mGlu5 (setting [1]) came out at 2.47 µM. Moreover, on rat mGlu3, the IC50 is 0.944 µM and the remaining activity at 30 µM is 1.73%.
As for `O=C1c2cc(CNc3ccc(OC(F)F)cc3F)nn2CCN1c1ccccc1F` [Compound 153, 2-(((4-(difluoromethoxy)-2-fluorophenyl)amino)methyl)-5-(2-fluorophenyl)-6,7-dihydropyrazolo[1,5-a]pyrazin-4(5H)-one], at rat mGlu5, the “Fold selectivity (mGlu3 vs. mGlu5)” value was above 38. Besides, the 50% effective concentration (EC50) at rat mGlu5 (setting [1]) was above 30 µM. On rat mGlu3, the IC50 was 0.772 µM and the remaining activity at 30 µM came to 2.29%.
`COc1ccc(N(C)Cc2cc3n(n2)CCN(c2ccc(C)cc2F)C3=O)cc1` [Compound 108, 5-(2-fluoro-4-methylphenyl)-2-(((4-methoxyphenyl)(methyl)amino)methyl)-6,7-dihydropyrazolo[1,5-a]pyrazin-4(5H)-one]: the “Fold selectivity (mGlu3 vs. mGlu5)” value at rat mGlu5 is given as above 24. For the same compound, on rat mGlu5 (setting [1]), the EC50 was above 30 µM. Further, on rat mGlu3, the concentration for half-maximal inhibition (IC50) worked out at 1.25 µM and the remaining activity at 30 µM turned out to be 0.97%.
